Some test systems named below: SF-268 CNS; SK-MEL-2 melanoma; HOP-62 NSCLC; M14 melanoma; MOLT-4 leukemia; MCF7 breast; T-47D breast; UACC-62 melanoma; DU-145 prostate; TK-10 renal.
Holding throughout (test): DTP human tumour cell line panel, 48 h

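All cell lines were grown in 96-well plates and treated with compound for 48 hours. TGI denotes the concentration required for complete inhibition of growth.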 A value given as a limit tells only on which side of the number the result lay.

As to `CCOC(=O)C1(C(=O)OCC)OC(C)=NC1(C(=O)OC)C(=O)OC`, the TGI in the experiment with SF-268 CNS, in the experiment on SK-MEL-2 melanoma, in the experiment on HOP-62 NSCLC, with M14 melanoma, in the experiment on MOLT-4 leukemia and in the experiment on MCF7 breast was greater than 100 µM each time. The concentration for total growth inhibition (TGI) in the experiment with T-47D breast, with UACC-62 melanoma, in the experiment on DU-145 prostate and in the experiment with TK-10 renal was greater than 100 µM each time.
As for `NC(=O)NCCCC(NC(=O)OCCCCCCn1ccc(=O)[nH]c1=O)C(=O)O` (stereo not given), the total growth inhibition concentration (TGI) in the experiment with SF-268 CNS, in the experiment on SK-MEL-2 melanoma, in the experiment with HOP-62 NSCLC, in the experiment on M14 melanoma, with MOLT-4 leukemia and with MCF7 breast was greater than 100 µM each time. The total growth inhibition concentration (TGI) in the experiment on T-47D breast, in the experiment on UACC-62 melanoma, in the experiment with DU-145 prostate and in the experiment with TK-10 renal was greater than 100 µM throughout.
For the compound `COc1ccc(C2SCC(=O)N2NC(=O)c2ccc(NC(C)=O)cc2)c(OC)c1` (stereo not given), the total growth inhibition concentration (TGI) in the experiment with SF-268 CNS, with SK-MEL-2 melanoma, with HOP-62 NSCLC, in the experiment with M14 melanoma, in the experiment on MOLT-4 leukemia and in the experiment on MCF7 breast was greater than 100 µM in each case. Besides, the total growth inhibition concentration (TGI) in the experiment with T-47D breast, in the experiment on UACC-62 melanoma, in the experiment with DU-145 prostate and in the experiment on TK-10 renal was greater than 100 µM throughout.
Consider `N#Cc1c(-c2ccc(Cl)cc2)[nH]c(=O)n(C2OC(CO)C(O)C(O)C2O)c1=O` (stereo not given), for which the total growth inhibition concentration (TGI) with SF-268 CNS, in the experiment with SK-MEL-2 melanoma, in the experiment on HOP-62 NSCLC, with M14 melanoma, with MOLT-4 leukemia and in the experiment with MCF7 breast was greater than 100 µM each time. The TGI in the experiment with T-47D breast, with UACC-62 melanoma, in the experiment on DU-145 prostate and in the experiment on TK-10 renal was greater than 100 µM throughout.
In the case of `N#CC(=N)c1ncn(-c2ccc(N)cc2)c1N`, the concentration for total growth inhibition (TGI) in the experiment with SF-268 CNS, in the experiment with SK-MEL-2 melanoma, with HOP-62 NSCLC, in the experiment on M14 melanoma, in the experiment with MOLT-4 leukemia and in the experiment on MCF7 breast was greater than 100 µM each time. Also, the TGI in the experiment on T-47D breast, with UACC-62 melanoma, in the experiment with DU-145 prostate and with TK-10 renal was greater than 100 µM each time.
Turning to `CCOC(=O)C1=NN(c2ccc([N+](=O)[O-])cc2)[C@@]2(C)C[C@]3(c4ccccc4)N(c4ccc([N+](=O)[O-])cc4)N=C(C(=O)OCC)N3c3ccccc3N12`, the TGI with SF-268 CNS, in the experiment with SK-MEL-2 melanoma, with HOP-62 NSCLC, with M14 melanoma, in the experiment with MOLT-4 leukemia and with MCF7 breast was greater than 100 µM each time. Besides, the total growth inhibition concentration (TGI) in the experiment on T-47D breast, in the experiment on UACC-62 melanoma, with DU-145 prostate and in the experiment on TK-10 renal was greater than 100 µM each time.
For `N#Cc1c(N2CCC(O)C2)c2ccccc2n2c1nc1ccccc12` (stereo not given), the TGI (in general, the concentration at which net growth stops) was greater than 100 µM with SF-268 CNS; greater than 100 µM in the experiment with SK-MEL-2 melanoma; 46.6 µM with HOP-62 NSCLC; greater than 100 µM with M14 melanoma; greater than 100 µM with MOLT-4 leukemia; greater than 100 µM in the experiment with MCF7 breast. The TGI in the experiment with T-47D breast, in the experiment on UACC-62 melanoma, in the experiment on DU-145 prostate and in the experiment with TK-10 renal was greater than 100 µM each time.
Turning to `O=C1CSC(c2ccccc2[N+](=O)[O-])N1c1ccc(-c2ccc(-n3c(-c4ccccc4)nc4ccccc4c3=O)cc2)cc1` (stereo not given), the TGI in the experiment with SF-268 CNS, with SK-MEL-2 melanoma, in the experiment on HOP-62 NSCLC, in the experiment on M14 melanoma, in the experiment on MOLT-4 leukemia and in the experiment with MCF7 breast was greater than 100 µM throughout. Moreover, the total growth inhibition concentration (TGI) with T-47D breast, in the experiment on UACC-62 melanoma, with DU-145 prostate and in the experiment with TK-10 renal was greater than 100 µM in each case.
Regarding `COC(=O)c1cc(C(=CCC[C@H]2CC[C@@]3(C)C(CCC4C3CC[C@@]3(C)C4CC[C@@H]3C(C)CCCC(C)C)C2)c2cc(Cl)c(O)c(C(=O)OC)c2)cc(Cl)c1O` (stereo not given in full), the TGI in the experiment with SF-268 CNS, in the experiment on SK-MEL-2 melanoma, in the experiment on HOP-62 NSCLC, in the experiment on M14 melanoma, in the experiment with MOLT-4 leukemia and with MCF7 breast was greater than 10 µM in each case. Also, the TGI in the experiment on T-47D breast, with UACC-62 melanoma, in the experiment on DU-145 prostate and in the experiment on TK-10 renal was greater than 10 µM throughout.
For `COc1ccc(CCCNC(=O)c2cc(OC)c(OC)cc2CCO)cc1OC`, the concentration for total growth inhibition (TGI) with SF-268 CNS, with SK-MEL-2 melanoma, in the experiment with HOP-62 NSCLC, in the experiment on M14 melanoma, in the experiment on MOLT-4 leukemia and with MCF7 breast was greater than 100 µM in each case. Also, the TGI in the experiment on T-47D breast, in the experiment on UACC-62 melanoma, in the experiment with DU-145 prostate and in the experiment on TK-10 renal was greater than 100 µM each time.
Consider `CC(C)=CCC/C(C)=C/CC/C(C)=C/CC/C(C)=C/CC/C(C)=C/CC/C(C)=C/CC/C(C)=C/CC/C(C)=C/CC/C(C)=C/CO`, for which the TGI in the experiment on SF-268 CNS, with SK-MEL-2 melanoma, in the experiment on HOP-62 NSCLC, with M14 melanoma, in the experiment on MOLT-4 leukemia and with MCF7 breast was greater than 100 µM in each case. Also, the total growth inhibition concentration (TGI) in the experiment with T-47D breast, in the experiment on UACC-62 melanoma, with DU-145 prostate and with TK-10 renal was greater than 100 µM throughout.
As to `C=C(CCC/C(C)=C/C=C/[C@@H](C)CCCc1ccoc1)C[C@@H]1OC(=O)[C@H](C)[C@@H]1O`, the TGI in the experiment on SF-268 CNS is 18.5 µM; in the experiment with SK-MEL-2 melanoma, 17.7 µM; in the experiment with HOP-62 NSCLC it was 18.3 µM; in the experiment on M14 melanoma, 19.9 µM; with MOLT-4 leukemia it was greater than 50 µM; with MCF7 breast, 25.2 µM. Moreover, the TGI was 26.2 µM in the experiment on T-47D breast, 12.3 µM in the experiment with UACC-62 melanoma, 23.5 µM in the experiment on DU-145 prostate and 25.8 µM with TK-10 renal.
Turning to `CC(C)=CC(Cc1ccccc1)S(=O)(=O)c1nc2ccccc2s1` (stereo not given), the concentration for total growth inhibition (TGI) in the experiment on SF-268 CNS worked out at 36.5 µM; in the experiment on SK-MEL-2 melanoma, 28.5 µM; in the experiment on HOP-62 NSCLC, 64.3 µM; in the experiment with M14 melanoma, 31.2 µM; in the experiment with MOLT-4 leukemia, 7.95 µM; in the experiment with MCF7 breast, 31.5 µM. For the same compound, the TGI is greater than 67.2 µM in the experiment on T-47D breast, 46.5 µM with UACC-62 melanoma, 31.5 µM in the experiment on DU-145 prostate and 35.8 µM in the experiment with TK-10 renal.

For the origin of these results see PubChem BioAssay (NCI).
